Key:
Cleaved Caspase 3 (CC3) = assay: Cleaved caspase 3 immunofluorescence during endoderm induction; format: cell-based, human; details: 48 hours of induction, 4 different cell-line experiments
Description: Immunohistochemistry and Cell staining. iPSCs, endodermal cells and iHeps were fixed using 4% paraformaldehyde for 15 minutes, permeabilized using 0.1% Triton X-100 for 10 minutes followed by 3× PBS (phosphate buffered saline, Corning Life Sciences) rinses and blocking with 1.5% bovine serum albumin for 1 hour. Samples were incubated with primary antibody overnight. […]
As a first step to understand the mechanism by which doxycycline was affecting induction of iPSCs into endoderm, we explored whether doxycycline was affecting proliferation versus cellular death. […] After quantification, we noted both significant Ki-67 staining and cleaved caspase 3 (CC3) staining, as expected (FIG. 3A). […]

iPSC-derived hepatocytes = assay: RNA Sequencing of iPSCs fully differentiated to hepatocytes; format: cell-based, human; details: 5 paired iPSCs, doxycycline during endoderm phase
Description: Differentiation of Definitive Endoderm to hepatocytes (days 8-23). iPSC-derived human endoderm prepared as described herein was cultured continuously on Matrigel or split 1:2 onto Matrigel plates for hepatic differentiation. Definitive endoderm (DE) was cultured in Iscove's modified Dulbecco's medium (Gibco catalog #supplemented with Gem21 NeuroPlex without insulin (Gemini Bio-Products catalog #400-962), Glutagro, non-essential amino acids (1×, Gibco catalog #11-140-050), 0.3 mM monothioglycerol, 5 μg/mL human insulin (Sigma), and 100 nM dexamethasone. To induce hepatoblasts, cells were treated with FGF2 (10 ng/mL) and BMP4 (20 ng/mL) for 5 days. During this phase, cells can be passaged using accutase and split at least 2 to 4× to increase yield and quality of final product again onto Matrigel with the addition of 10 μM Y-27632 and 2 μM doxycycline to increase cell survival during accutase treatment and splitting. This phase and the next were grown at low oxygen (4-6%) and 5% CO2. […]
RNA isolation, Real-Time PCR analysis, and RNA Sequencing. […] Quantitative Real-Time PCR was performed using FastStart Universal SYBR Green, Roche Diagnostics (Indianapolis, IN). […] On average, 27,642,407 raw reads were obtained and mapped. Raw reads were subjected to quality control. Clean reads were analyzed by Gene Ontology analysis, KEGG pathway enrichment, and cluster analysis. […]

C[C@H]1c2cccc(O)c2C(=O)C2=C(O)[C@]3(O)C(=O)C(C(N)=O)=C(O)[C@@H](N(C)C)[C@@H]3[C@@H](O)[C@@H]21 [doxycycline]
decrease in CC3 staining (Cleaved Caspase 3 (CC3)): greater than 50% | effect on final iPSC-derived hepatocytes (principal component analysis) (iPSC-derived hepatocytes): did not alter the final product
